Assay results as given in US20230172825A1, “COMPOSITION FOR IMPROVING SKIN COMPRISING AMINO ACID COMPLEX AS ACTIVE INGREDIENT” (NATURE IN LAB. INC., priority 2021, published 2023).

Key:
Type in all cases: cell-based, human
[1] = system: collagen type III; experiment: Gene expression of collagen type III (real-time PCR); settings: CCD-1064Sk, 24 hours, concentration 100 µg/mℓ; control group 100.0
Protocol: Human dermal fibroblasts (CCD-1064Sk, ATCC® CRL-2076™) were inoculated into a 60 mm dish using IMDM (Welgene, Korea), cultured for 24 hours, and then replaced with fresh serum-free IMDM. […] After removal of the medium, the cells were collected by using QIAzol™ Lysis Reagent (Qiagen), and RNA thereof was isolated according to the protocol of the manufacturer. After quantifying the isolated RNA, cDNA was synthesized with 1 µg of RNA, followed by Real-time PCR (Applied Biosystems, 7500 FAST Real-Time PCR System).

[2] = system: collagen type I; experiment: Gene expression of collagen type I (real-time PCR); settings: CCD-1064Sk, 24 hours, concentration 100 µg/mℓ; control group 100.0
Protocol: After removal of the medium, the cells were collected by using QIAzol™ Lysis Reagent (Qiagen), and RNA thereof was isolated according to the protocol of the manufacturer. After quantifying the isolated RNA, cDNA was synthesized with 1 µg of RNA, followed by Real-time PCR (Applied Biosystems, 7500 FAST Real-Time PCR System).

[3] = system: MMP-1; experiment: Inhibition of MMP-1 gene expression in UVA-damaged cells (real-time PCR); settings: UVA-irradiated CCD-1064Sk, 24 hours, concentration 1 µg/mℓ; UVA alone 100.0, control group 50.5
Protocol: Human dermal fibroblasts (CCD-1064Sk, ATCC® CRL-2076™) were inoculated into a 60-mm dish using IMDM (Welgene, Korea) and cultured for 24 hours, followed by UVA irradiation. Afterwards, the medium was replaced with fresh serum-free IMDM, and samples were each treated at different concentrations and cultured for 24 hours at 37° C. in a 5 % CO2 incubator. After removal of the medium, the cells were collected by using QIAzol™ Lysis Reagent (Qiagen), and RNA thereof was isolated according to the protocol of the manufacturer. After quantifying the isolated RNA, cDNA was synthesized with 1 µg of RNA, followed by Real-time PCR (Applied Biosystems, 7500 FAST Real-Time PCR System).

SMILES | Mean (gene expression of collagen type III) [1] | Mean (gene expression of collagen type I) [2] | Mean (gene expression of MMP-1) [3]
O=C1O[C@H]([C@@H](O)CO)C(O)=C1O [Vitamin C, vitamin C] | 135.6 | 134.2 | 
O=C(O[C@@H]1Cc2c(O)cc(O)cc2O[C@@H]1c1cc(O)c(O)c(O)c1)c1cc(O)c(O)c(O)c1 [EGCG] |  |  | 56.7
